Earlier results in patent US20220047626A1, “COMPOSITION OF A SPRAY FORMULA TO CONTROL MASTITIS IN BOVINES” (priority 2018, published 2022).

Settings: stated in the description, no method given

| viscosity | Structure (SMILES) |
| --- | --- |
| 52 cP | CC(O)CO (stereo not drawn) [propylene glycol] |
| 200 cP | OC[C@@H](O)[C@@H](O)[C@H](O)[C@@H](O)CO [sorbitol] |
| 950 cP | OCC(O)CO [glycerin] |
